Structures are written as SMILES.

For experiment [1], the system named is SRB. Kind of experiment: Hydrogen sulfide inhibition in actual produced water (Eagle Ford shale, diluted to 3%), H2S by Draeger tubes. Type of experiment: cell-based, sulfate-reducing bacteria (SRB). To be noted: 20 ppm MoO4 alone, actual produced water (Example 7). How it is done:
(§1) Hydrogen sulfide inhibition was tested in mock-produced water approximating water used in hydraulic fracturing operations and was made to a total dissolved solids concentration of 3% with a mixture of instant ocean and NaCl salts. The water was supplemented with nutrients and sulfate to allow SRB to metabolize and create H2S. The water was spiked with SRB and then treated with the various treatment conditions noted below in Table 3 and sealed. Treatment conditions were: Control: No biocide or nitrate.
(§2) H2S was measured at intervals using H2S detecting Draeger tubes. Dissolved H2S was released into the gas phase with the addition of hydrochloric acid so that H2S could be measured with the Draeger tubes to get a complete reading of all H2S produced during the course of the example.
Samples were prepared in accordance with Example 4, except that actual produced water sourced from the Eagle Ford shale that was diluted to 3% using deionized water was used in the samples.
Example 7 was performed in accordance with Example 6 using actual produced water. Samples of the following were mixed with the […].

Experiment [2] has as its system SRB. Description: Hydrogen sulfide inhibition in mock-produced water spiked with SRB, H2S by Draeger tubes. Type of experiment: cell-based, sulfate-reducing bacteria (SRB). To be noted: 20 ppm MoO4 alone, mock produced water (Example 6). The method, then:
as §1, §2
Example 6 was performed in accordance with Example 4 using mock produced water. Samples of the following were mixed with the mock produced water.

For `[O]=[Mo](=[O])([O-])[O-]` [MoO4, molybdate], the “Total H2S” value in experiment [1] is 3188 ppm; in experiment [2], 1974 ppm.

The values are drawn from patent US12071586B2, “Composition and method for controlling bacteria in formations” (priority 2017, dated 2024).
